This passage reports IC50 results from BindingDB's records for patent US20250092039 (Tiger Biotherapeutics, 2025).

The test addresses GTPase KRas [G12V]/RAF proto-oncogene serine/threonine-protein kinase (Homo sapiens, UniProt P01116, G12V). The test can be described thus: KRAS/RAF1 Binding Inhibition Assay. The method, then: The test compounds in 2% DMSO (final concentration) at various concentrations were then added to the reaction mixture and incubated for 60 minutes at 4° C.

Where only a bound is given, the exact number is not on record here.

Consider `CCc1c(F)ccc2cc(O)cc(-c3ncc4c(N5CCCNC(=O)C5)nc(OCC5(CN6CCC7(CC6)CC(CN6CCN(c8ccc9c(c8)CN([C@H]8CCC(=O)NC8=O)C9=O)CC6)C7)CC5)nc4c3F)c12` [US20250092039, Compound 93], for which the IC50 was ≤ 200 nM.
As to `CCc1c(F)ccc2cc(O)cc(-c3ncc4c(N5CCCNC(=O)C5)nc(OCC5(CN6CCC(CN7CCN(c8ccc9c(c8)CN([C@H]8CCC(=O)NC8=O)C9=O)CC7)CC6)CC5)nc4c3F)c12` [US20250092039, Compound 95], the IC50 is > 200 nM.
